In patent US11590116B2 (THERAVANCE BIOPHARMA R&D IP, LLC, priority 2019, dated 2023):

Legend:
[1] = system: TGF-β-stimulated SMAD3 phosphorylation in BEAS-2B cells; assay: Cellular ALK5 potency assay, inhibition of TGF-β stimulated pSMAD3 formation in BEAS-2B cells; format: cell-based; settings: Homo sapiens; inhibition of TGF-β stimulated pSMAD3 formation, BEAS-2B cells; read-out: BEAS2B pIC50 (converted)
Procedure, shortened: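 AlphaLISA pSMAD3 read-out, beads incubated overnight. Human BEAS-2B cells: 1 h compound preincubation (37 °C, 5% CO2), then 30 min TGF-β at 10 ng/mL final, immediate lysis. Values are pIC50 relative to stimulated, compound-free baseline.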

[2] = target: T1, recombinant human ALK5 (TGF-βR1) protein (Homo sapiens, UniProt P36897); assay: Biochemical ALK5 (TGF-βR1) assay to measure pKi (LANCE Ultra ULight kinase assay); settings: apparent pKi from pIC50 by Cheng-Prusoff, read-out: ALK5 pKi (converted)
T1 construct: purchased Life Technologies PR9075A
T1 sequence (P36897 34-503): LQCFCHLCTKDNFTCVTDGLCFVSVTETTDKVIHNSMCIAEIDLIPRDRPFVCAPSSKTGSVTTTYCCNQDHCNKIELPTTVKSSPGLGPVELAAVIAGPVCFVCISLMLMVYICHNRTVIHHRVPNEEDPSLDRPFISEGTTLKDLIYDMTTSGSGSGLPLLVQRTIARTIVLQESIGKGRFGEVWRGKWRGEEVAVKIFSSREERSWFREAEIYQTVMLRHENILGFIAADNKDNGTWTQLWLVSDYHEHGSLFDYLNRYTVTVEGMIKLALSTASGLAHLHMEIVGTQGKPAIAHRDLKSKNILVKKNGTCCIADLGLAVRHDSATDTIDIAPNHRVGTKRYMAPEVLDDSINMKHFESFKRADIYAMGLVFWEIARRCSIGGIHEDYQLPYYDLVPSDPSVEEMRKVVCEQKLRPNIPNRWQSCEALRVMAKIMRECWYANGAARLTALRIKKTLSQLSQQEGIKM
Procedure, shortened: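 After a 60 min room-temperature preincubation of ALK5 with compound, phosphorylation proceeds 60 min at 37 °C on ATP addition (125 μM as 5× stock). Detection: Eu-labelled phospho-Thr1342 Topo IIα antibody in EDTA buffer, pH 7.0; emission 665 nm.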

Ki [2]	Structure (SMILES)	IC50 [1]
3.98 to 31.6 nM	Cc1cccc(-c2[nH]ncc2-c2ccc3nccc(C(=O)O)c3c2)n1 [Compound 1064, 6-[5-(6-methyl-2-pyridyl)-1H-pyrazol-4-yl]quinoline-4-carboxylic acid]	1580 to 10000 nM
0.0398 to 0.316 nM	Cc1cccc(-c2[nH]cnc2-c2ccc3ncc(C(=O)OCCN4CCC5NCCC5C4)cc3c2)n1 (stereo not shown) [Compound 1065, 2-(1,2,3,3a,4,6,7,7a-octahydropyrrolo[3,2-c]pyridin-5-yl)ethyl 6-[5-(6-methyl-2-pyridyl)-1H-imidazol-4-yl]quinoline-3-carboxylate]	200 to 1260 nM
0.398 to 3.16 nM	Cc1cccc(-c2[nH]cnc2-c2ccc3ncc(C(=O)O[C@H]4CC[C@@H](N)CC4)cc3c2)n1 [Compound 1066, (4-aminocyclohexyl) 6-[5-(6-methyl-2-pyridyl)-1H-imidazol-4-yl]quinoline-3-carboxylate]	200 to 1260 nM
0.0398 to 0.316 nM	Cc1cccc(-c2[nH]cnc2-c2ccc3ncc(C(=O)OCCN4CCN5CCCC5C4)cc3c2)n1 (stereo not shown) [Compound 1067, 2-(3,4,6,7,8,8a-hexahydro-1H-pyrrolo[1,2-a]pyrazin-2-yl)ethyl 6-[5-(6-methyl-2-pyridyl)-1H-imidazol-4-yl]quinoline-3-carboxylate]	25.1 to 158 nM
0.0398 to 0.316 nM	Cc1cccc(-c2[nH]cnc2-c2ccc3ncc(-c4nc5c(s4)CNCC5)cc3c2)n1 [Compound 1068, 2-[6-[5-(6-methyl-2-pyridyl)-1H-imidazol-4-yl]-3-quinolyl]-4,5,6,7-tetrahydrothiazolo[5,4-c]pyridine]	< 20 nM
< 0.0316 nM	Cc1cccc(-c2[nH]cnc2-c2ccc3ncc(-c4cc(C(=O)OCC5CNC5)cs4)cc3c2)n1 [Compound 1070, azetidin-3-ylmethyl 5-[6-[5-(6-methyl-2-pyridyl)-1H-imidazol-4-yl]-3-quinolyl]thiophene-3-carboxylate]	25.1 to 158 nM
0.398 to 3.16 nM	CN[C@H]1CC[C@@H](OC(=O)c2cnc3ccc(-c4nc[nH]c4-c4cccc(C)n4)cc3c2)CC1 [Compound 1071, [4-(methylamino)cyclohexyl] 6-[5-(6-methyl-2-pyridyl)-1H-imidazol-4-yl]quinoline-3-carboxylate]	25.1 to 158 nM
0.0398 to 0.316 nM	Cc1cccc(-c2[nH]cnc2-c2ccc3ncc(-c4cnc(C(=O)O[C@H]5CCNC5)nc4)cc3c2)n1 [Compound 1072, [(3S)-pyrrolidin-3-yl] 5-[6-[5-(6-methyl-2-pyridyl)-1H-imidazol-4-yl]-3-quinolyl]pyrimidine-2-carboxylate]	200 to 1260 nM
0.398 to 3.16 nM	Cc1cccc(-c2[nH]cnc2-c2ccc3ncc(-c4nccc(C(=O)O[C@H]5CCNC5)n4)cc3c2)n1 [Compound 1073, [(3S)-pyrrolidin-3-yl] 2-[6-[5-(6-methyl-2-pyridyl)-1H-imidazol-4-yl]-3-quinolyl]pyrimidine-4-carboxylate]	1580 to 10000 nM
0.0398 to 0.316 nM	Cc1cccc(-c2[nH]cnc2-c2ccc3ncc(-c4cc(C(=O)OC5CNC5)ccn4)cc3c2)n1 [Compound 1074, azetidin-3-yl 2-[6-[5-(6-methyl-2-pyridyl)-1H-imidazol-4-yl]-3-quinolyl]pyridine-4-carboxylate]	25.1 to 158 nM
0.398 to 3.16 nM	Cc1cccc(-c2[nH]cnc2-c2ccc3ncc(-c4nccc(C(=O)OC5CNC5)n4)cc3c2)n1 [Compound 1075, azetidin-3-yl 2-[6-[5-(6-methyl-2-pyridyl)-1H-imidazol-4-yl]-3-quinolyl]pyrimidine-4-carboxylate]	200 to 1260 nM
0.398 to 3.16 nM	Cc1cccc(-c2[nH]cnc2-c2ccc3nccc(C(=O)OC[C@H]4CC[C@@H](N)CC4)c3c2)n1 [Compound 1077, (4-aminocyclohexyl)methyl 6-[5-(6-methyl-2-pyridyl)-1H-imidazol-4-yl]quinoline-4-carboxylate]	25.1 to 158 nM
0.398 to 3.16 nM	Cc1cccc(-c2[nH]cnc2-c2ccc3nccc(C(=O)OCC4CCNCC4)c3c2)n1 [Compound 1078, 4-piperidylmethyl 6-[5-(6-methyl-2-pyridyl)-1H-imidazol-4-yl]quinoline-4-carboxylate]	25.1 to 158 nM
0.0398 to 0.316 nM	Cc1cccc(-c2[nH]cnc2-c2ccc3ncc(-c4ncc(C(=O)O[C@@H]5CCNC5)cn4)cc3c2)n1 [Compound 1079, [(3R)-pyrrolidin-3-yl] 2-[6-[5-(6-methyl-2-pyridyl)-1H-imidazol-4-yl]-3-quinolyl]pyrimidine-5-carboxylate]	25.1 to 158 nM
0.398 to 3.16 nM	Cc1cccc(-c2[nH]cnc2-c2ccc3nccc(C(=O)OC[C@H]4CC[C@H](N)CC4)c3c2)n1 [Compound 1081, (4-aminocyclohexyl)methyl 6-[5-(6-methyl-2-pyridyl)-1H-imidazol-4-yl]quinoline-4-carboxylate]	200 to 1260 nM
< 0.0316 nM	Cc1cccc(-c2[nH]cnc2-c2ccc3ncc(-c4cc(C(=O)O)cs4)cc3c2)n1 [Compound 1082, 5-[6-[5-(6-methyl-2-pyridyl)-1H-imidazol-4-yl]-3-quinolyl]thiophene-3-carboxylic acid]	200 to 1260 nM
0.398 to 3.16 nM	Cc1cccc(-c2[nH]ncc2-c2ccc3nccc(C(=O)OC[C@@H]4CCCCN4)c3c2)n1 [Compound 1085, [(2S)-2-piperidyl]methyl 6-[5-(6-methyl-2-pyridyl)-1H-pyrazol-4-yl]quinoline-4-carboxylate]	25.1 to 158 nM
0.0398 to 0.316 nM	Cc1cccc(-c2[nH]cnc2-c2ccc3ncc(-c4ccnc(C(=O)OCC5CNC5)c4)cc3c2)n1 [Compound 1086, azetidin-3-ylmethyl 4-[6-[5-(6-methyl-2-pyridyl)-1H-imidazol-4-yl]-3-quinolyl]pyridine-2-carboxylate]	200 to 1260 nM
< 0.0316 nM	Cc1cccc(-c2[nH]cnc2-c2ccc3ncc(-c4cc(C(=O)O[C@@H]5CCNC5)ccn4)cc3c2)n1 [Compound 1087, [(3R)-pyrrolidin-3-yl] 2-[6-[5-(6-methyl-2-pyridyl)-1H-imidazol-4-yl]-3-quinolyl]pyridine-4-carboxylate]	25.1 to 158 nM
0.0398 to 0.316 nM	Cc1cccc(-c2[nH]cnc2-c2ccc3ncc(-c4ccc(C(=O)OCCN5CCNCC5)s4)cc3c2)n1 [Compound 1088, 2-piperazin-1-ylethyl 5-[6-[5-(6-methyl-2-pyridyl)-1H-imidazol-4-yl]-3-quinolyl]thiophene-2-carboxylate]	25.1 to 158 nM
0.0398 to 0.316 nM	Cc1cccc(-c2[nH]cnc2-c2ccc3ncc(-c4cccc(C(=O)O[C@H]5CCNC5)n4)cc3c2)n1 [Compound 1089, [(3S)-pyrrolidin-3-yl] 6-[6-[5-(6-methyl-2-pyridyl)-1H-imidazol-4-yl]-3-quinolyl]pyridine-2-carboxylate]	25.1 to 158 nM
0.0398 to 0.316 nM	Cc1cccc(-c2[nH]cnc2-c2ccc3ncc(C(=O)OCCCC4CNC4)cc3c2)n1 [Compound 1090, 3-(azetidin-3-yl)propyl 6-[5-(6-methyl-2-pyridyl)-1H-imidazol-4-yl]quinoline-3-carboxylate]	200 to 1260 nM

Structure (SMILES)	Ki [2]	IC50 [1]
Cc1cccc(-c2[nH]cnc2-c2ccc3ncc(-c4ncc(C5=CCNCC5)s4)cc3c2)n1 [Compound 1084, 2-[6-[5-(6-methyl-2-pyridyl)-1H-imidazol-4-yl]-3-quinolyl]-5-(1,2,3,6-tetrahydropyridin-4-yl)thiazole]	0.0398 to 0.316 nM	< 20 nM
